The values below come from patent US20160095343A1, “Synbiotic Product” (Tate & Lyle Ingredients Americas LLC, priority 2010, published 2016).

Common to all, as to format: cell-based
Experiment [1] concerns B. subtilis. The experiment in a line: Growth of probiotic Bacillus on prebiotic carbohydrates (Example 1). Particulars: carbohydrate at 10 g/L. The procedure: (§1) Four commercial spore-forming probiotic Bacillus strains were grown on prebiotic carbohydrates at 10 g/L. (See FIG. 1). The four strains were B. pumilus, B. licheniformis, B. subtilis, and B. coagulans. The prebiotic carbohydrates were high molecular weight arabinoxylan (AX), xylose (X), soluble fiber dextrin (waxy) (SFDw), soluble corn fiber (85) (SCF), and polydextrose (PDX). As a measure of the significance of the data shown in FIG. 1, Table 1 indicates P values for the B. coagulans data.

In experiment [2] the test system is B. licheniformis. The description is as above. Particulars: carbohydrate at 10 g/L. The method, then:
as §1

The subject of experiment [3] is B. coagulans. Described as above. The conditions noted are these: carbohydrate at 10 g/L. The procedure: as §1
Experiment [4] concerns B. pumilus. The description is as above. Particulars: carbohydrate at 10 g/L. The method, then:
as §1

Experiment [5] relates to B. coagulans strain GBI-30. The experiment in a line: Comparison of maximum growth of B. coagulans on various carbohydrates (Example 2). The conditions noted are these: carbohydrate at ~10 g/L, against no added carbohydrates. An excerpt: The maximum growth of probiotic B. coagulans strain GBI-30 (ATCC Designation Number PTA-6086; U.S. Pat. No. 6,849,256) (Ganeden Biotech, Inc.; Mayfield Heights, Ohio) was compared on the carbohydrates arabinoxylan, xylose, and dextrose at ˜10 g/L and against addition of no carbohydrates (FIG. 2).

Turning to `O=C[C@H](O)[C@@H](O)[C@H](O)CO` [xylose], the “growth of B. subtilis on the prebiotic carbohydrate” value in experiment [1] was “grew”. The “growth of B. licheniformis on the prebiotic carbohydrate” value in experiment [2] is “limited growth”. Moreover, the “growth of B. coagulans on the prebiotic carbohydrate” value in experiment [3] is given as “grew”. In addition, the “growth of B. pumilus on the prebiotic carbohydrate” value in experiment [4] is listed as “did not appear able to grow”. Moreover, the “maximum growth of B. coagulans strain GBI-30 on the carbohydrate” value in experiment [5] was “strong growth”.
